System: Male Wistar rats
Assay: Ischemia reperfusion: infarct size after LAD occlusion (25 min) and reperfusion (2 h) in anesthetised rats
Type: in vivo, rat
Details: 32 mg/kg i.v. bolus 5 min prior to ischemia; 25 min LAD occlusion, 2 h reperfusion; vs vehicle 56±3% of the AAR; P=0.047, unpaired Students t-test; FIG. 2
Method: Male Wistar rats (200-300 g, Tuck, Rayleigh, Essex, U.K.) were anesthetised with thiopentone sodium (Intraval®, 120 mg/kg i.p.; Rhone-Merrieux, Essex, U.K.). The rats were tracheotomised, intubated and ventilated with a Harvard ventilator (70 strokes/min, tidal volume: 8-10 mL/kg, inspiratory oxygen concentration: 30%). Body temperature was maintained at 38±1° C. The right carotid artery was cannulated and connected to a pressure transducer (MLT 1050, AD Instruments Ltd, Hastings, UK) to monitor mean arterial blood pressure (MAP) and heart rate (HR), which were continuously recorded on a data acquisition system such as Powerlab® Version 4.0.4, AD Instruments, Hastings, UK. The right jugular vein was cannulated for drug administration and the administration of Evans Blue dye (at the end of the experiment). A lateral thoracotomy was performed and the heart was suspended in a temporary pericardial cradle. A snare occluder was placed around the left anterior descending coronary artery (LAD). After completion of the surgical procedure the animals were allowed to stabilise for 30 min before LAD ligation. Five minutes prior to the onset of myocardial ischemia, a bolus injection (i.v.) of either vehicle or phosphonate was administered. The coronary artery was occluded at time 0 by tightening of the occluder. […]

Cc1nc(-c2ccccc2)c(C(F)P(=O)(O)O)c(CO)c1O (stereo not shown) [Compound 38, [Fluoro-(5-hydroxy-4-hydroxymethyl-6-methyl-2-phenyl-pyridin-3-yl)-methyl]-phosphonic acid]
myocardial infarct size (as a percentage of the weight of the AAR): reduced myocardial infarct size

From patent US20060241083A1, “Novel heteroaryl phosphonates as cardioprotective agents” (Medicure International Inc., priority 2003, published 2006)
